Target: T1, human KMO (Homo sapiens, UniProt O15229)
T1 construct: Full length human KMO was amplified by PCR from pcDNA5/FRT/V5-His-TOPO/hKMO; made in house; host or cells: Spodoptera frugiperda Sf9 cells (baculovirus); purified membrane fraction used
Test: KMO MS Rapidfire assay
Assay type: biochemical
Conditions: human KMO-membranes from Sf9 cells, 10 μM Kynurenine, 200 μM NADPH, 3-HK detected by MS
Protocol: pFastbac1 GST-KMO was transposed into the baculovirus genome using the BAC-to-BAC technology (Invitrogen) and bacmid DNA was prepared and transfected into Spodoptera frugiperda (Sf9) cells using Cellfectin II (Invitrogen).
Cells were harvested after 48 hours and disrupted by blending in 50 mM Hepes, pH 7.4, 1 mM EDTA buffer containing protease inhibitors. A low speed spin (400 g) was used to remove cell debris, followed by a high speed spin (75 000 g) to pellet the membranes. The membranes were purified in a discontinuous sucrose density gradient by re-suspending in 10% (w/v) sucrose and layering over 40% (w/v) sucrose, both in the above buffer. This was centrifuged at 150 000 g and the purified membranes were taken from the interface, collected by centrifugation at 100 000 g, resuspended in buffer and aliquoted for storage at −80° C.
11 point, 3-fold serial dilutions of test compounds were prepared in DMSO and 100 nL of these solutions were dispensed into 384-well V-base polypropylene plates (Greiner Bio-one, Stonehouse, UK) using an Echo 555 acoustic dispenser (Labcyte, Sunnyvale, Calif.). This gave a final assay concentration range between 100 μM and 1.7 nM in 10 μL final assay volume (see below). 100 nL DMSO was dispensed into columns 6 and 18 for high and low controls, respectively, with prior inactivation of the enzyme in column 18 by pre-dispense of 30 μL of 0.5% (v/v) TFA. […]

T1 sequence (O15229 whole entry): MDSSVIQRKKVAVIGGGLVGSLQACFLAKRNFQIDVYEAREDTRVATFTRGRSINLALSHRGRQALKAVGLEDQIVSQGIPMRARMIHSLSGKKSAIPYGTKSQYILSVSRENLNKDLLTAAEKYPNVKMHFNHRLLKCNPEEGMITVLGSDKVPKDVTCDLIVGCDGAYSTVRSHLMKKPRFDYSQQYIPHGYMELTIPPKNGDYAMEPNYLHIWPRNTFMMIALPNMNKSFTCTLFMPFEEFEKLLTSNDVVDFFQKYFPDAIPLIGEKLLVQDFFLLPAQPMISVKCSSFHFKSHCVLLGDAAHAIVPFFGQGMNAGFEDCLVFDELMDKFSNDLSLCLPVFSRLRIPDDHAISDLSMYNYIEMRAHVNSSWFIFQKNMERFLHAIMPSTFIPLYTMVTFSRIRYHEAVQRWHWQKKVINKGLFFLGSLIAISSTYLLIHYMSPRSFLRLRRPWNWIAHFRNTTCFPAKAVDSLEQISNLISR

median pIC50: 7.9
SMILES: Cc1cc2oc(=O)n(CCC(=O)O)c2cc1Cl [Example 1, 3-(5-Chloro-6-methyl-2-oxobenzo[d]oxazol-3(2H)-yl)propanoic Acid]

Reference: patent US11352334B2, “3-(5-chloro-2-oxobenzo[d]oxazol-3(2H)-yl) propanoic acid derivatives as KMO inhibitors” (THE UNIVERSITY COURT OF THE UNIVERSITY OF EDINBURGH, priority 2013, dated 2022)
